Assay [1] has as its target T1, TXA2 synthase in human platelet microsomes (Homo sapiens, UniProt P24557).
T1 construct: using microsomal fractions from human platelets as enzyme source; from tissue; host or cells: human platelets, microsomal fraction
T1 sequence (P24557 1-533): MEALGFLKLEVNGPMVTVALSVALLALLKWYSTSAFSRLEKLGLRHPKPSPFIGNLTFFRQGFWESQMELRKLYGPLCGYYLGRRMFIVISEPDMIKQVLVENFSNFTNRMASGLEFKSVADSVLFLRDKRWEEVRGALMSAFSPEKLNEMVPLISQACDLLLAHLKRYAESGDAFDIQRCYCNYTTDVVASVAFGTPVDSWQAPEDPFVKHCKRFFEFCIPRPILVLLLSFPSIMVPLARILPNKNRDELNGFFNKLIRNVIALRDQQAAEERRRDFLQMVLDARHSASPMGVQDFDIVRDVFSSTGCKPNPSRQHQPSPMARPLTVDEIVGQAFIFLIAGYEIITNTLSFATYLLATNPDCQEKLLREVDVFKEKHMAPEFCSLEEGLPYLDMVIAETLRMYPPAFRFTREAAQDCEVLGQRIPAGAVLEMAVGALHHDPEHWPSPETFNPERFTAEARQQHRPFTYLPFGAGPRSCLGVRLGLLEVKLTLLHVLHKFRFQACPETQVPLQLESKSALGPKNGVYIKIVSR
The assay can be described thus: Thromboxane synthase (TXA2 syn.) inhibitory activity. It counts as biochemical. The settings on record: 10 μM PGH2. How it is done: (d) Assay for Thromboxane Synthase (TXA2 Syn.) Inhibitory Activity
TXA2 syn. activity is measured by following the conversion of ^14 C-prostaglandin endoperoxide (PGH2) to ^14 C-thromboxane A2 (TXA2) using microsomal fractions from human platelets as enzyme source. In the aqueous incubation medium, the TXA2 decomposes rapidly into TXB2. The amount of TXA2 syn. is adjusted so that under the conditions of the assay approximately 80-90% of the substrate, PGH2, is converted to product in control tubes. To prepare ^14 C-PGH2, ^14 C-AA (50-60 mCi/mmole; Rose Chem.) is incubated with sheep seminal vesicular gland microsomes for 1.5 min at 37° and then the ^14 C-PGH2 is extracted with diethylether, purified on columns of Sephadex LH-20 or silicic acid, and stored in acetone at -70° C. Incubations are done as follows. Sufficient ^14 C-PGH2 to yield a final substrate concentration of 10 μM (~30,000 cpm) is added to the incubation tubes and then the acetone is removed under nitrogen. The tubes are placed in an ice bath and then 215 μl of ice cold phosphate buffered saline, 10 μl of ethanol (control) or of test drug in ethanol, and 25 μl of the microsomal suspension are added with mixing in that order as rapidly as possible. The tubes are incubated at 22° for 2 minutes, the reaction is stopped and then the radioactive products and the uncoverted PGH2 are extracted and analyzed by thin layer chromatography. […] The amount of ^14 C-PGH2 converted to products was used as a measure of TXA2 synthase activity. Inhibitors were tested initially at a final concentration of 100 μM.

Assay [2] has as its system arachidonic acid induced platelet aggregation. The assay can be described thus: Arachidonic acid induced platelet aggregation in vitro. The settings on record: read-out: AA (IC50, arachidonic acid induced platelet aggregation). It counts as cell-based. The protocol: (§1) (1) Assay for Platelet Aggregation In Vitro
(§2) The turbidometric method of G. V. R. Born, Nature 194, 927 (1962) is used. Platelet rich plasma (PRP) and platelet poor plasma (PPP) are prepared with 0.38% sodium citrate-treated blood. Speed and time of centrifugation varied with different species; human:160 g for 20 minutes, dog:160 g for 15 minutes, guinea pig and rabbit:160 g for 15 minutes, and rat:230 g for 10 minutes. Aggregation is monitored with a Payton dual channel module or Chronolog lumiaggregometer when the release of ATP is simultaneously measured. 0.45 ml of PRP is added to a cuvette and prewarmed to 37° C. The stimulant (arachidonic acid or synthetic platelet activating factor) is added in volumes of 50 μl; all other agents in 5 μl. Vehicles are added to samples not containing agents. 0 to 100% light transmission is set with PRP and PPP. % aggregation is calculated from the % increase in light transmission at 5 minutes after the addition of the aggregating agent. For inhibition of aggregation studies the inhibitor is added first and preincubated with the platelets for 1 minute with stirring, followed by the stimulant. % inhibition is calculated from the % aggregation with and without the test compound. [formula]

For assay [3], the system named is PAF-induced bronchoconstriction. The assay can be described thus: Antagonism of PAF-induced bronchoconstriction in the guinea pig. It counts as in vivo, guinea pig (Hartley strain). The settings on record: Cavia porcellus, po, 2 hour pretreatment; read-out: ID50 antagonism of PAF-induced bronchoconstriction. How it is done: (g) Antagonism of PAF and Histamine-induced Bronchoconstriction in Guinea Pig
Spontaneously breathing male guinea pigs (Hartley strain) weighing 300-450 grams are dosed orally with test drug or control vehicle two hours prior to challenge with agonist. The animals are anesthetized with urethane (2 gm/kg) intraperitoneally and the jugular vein and trachea are cannulated. Two hours after dosing, the animal is paralyzed with succinylcholine (1.2 mg/kg, i.v.) and ventilated (Harvard rodent respirator) at 40 breaths/minutes and 2.5 cc tidal volume. Propranolol (0.1 mg/kg, i.v.) is administered and five minutes thereafter the animal is challenged with a constrictory dose of platelet activating factor (10 μg/kg, i.v.) or histamine dihydrochloride (20 μg/kg, i.v.). The change (cm H2 O) between pre and peak ventilatory pressure readings is averaged for three control animals and five drug treated animals. The percent inhibition is calculated from the following formula: (Control-Drug Treated/Control)×100.

Assay [4] relates to KCl-induced constriction in guinea pig ilea. The assay can be described thus: Antagonism of KCl-induced constriction in guinea pig ilea. How it is done: (h) Antagonism of KCl-induced Constriction in Guinea Pig Ilea
A 1-1.5 cm segment of guinea pig ileum removed from animals weighing 200-250 g is suspended in an organ bath containing 10 ml of Tyrodes solution with 10^-6 M atropine sulfate and 10^-6 M pyrilamine maleate. The bath is maintained at 37° C. and aerated with a mixture of 95% O2 and 5% CO2. KCl induces isometric constrictions of the ileum at concentrations between 10-30mM. The contractions consist of two phases, an initial fast contraction (the phasic portion), followed by a relaxation down to less intense but more prolonged contraction (the tonic phase). Varying concentrations of test drugs are incubated with the ileum for three minutes prior to KCl-challenge. The drug concentrations, which inhibit by 50% the phasic and tonic portion of the KCl-induced constrictions, are determined (IC50 's).

In assay [5] the test system is platelet activating factor induced platelet aggregation. In words: Platelet activating factor induced platelet aggregation in vitro. The settings on record: racemic platelet activating factor; read-out: PAF (IC50, platelet activating factor induced platelet aggregation). It counts as cell-based. The protocol: as §1, §2
[6] abbreviates: phasic, read-out: IC50 antagonism of KCl-induced constriction (phasic).
Setting [7] is: tonic, read-out: IC50 antagonism of KCl-induced constriction (tonic).

SMILES strings stand for the structures. Where two headings read alike, the source gives them in different places.

This note sets out measurements from patent US4551460A, “Pyrido[2,1-b]quinazoline derivatives useful as agents for treatment of allergic conditions and vascular disorders involving thrombosis” (priority 1983, dated 1985).

For orientation: IC50 means the midpoint of a concentration-inhibition curve. As to `CC(C)c1ccc2nc3ccc(C(=O)NCCCCn4ccnc4)cn3c(=O)c2c1` [Compound A, N-[4-(1H-imidazol-1-yl)butyl]-2-(1-methylethyl)-11-oxo-11H-pyrido[2,1-b]quinazoline-8-carboxamide], the IC50 is 0.1 to 1 µM in assay [1]; less than 10 µM in assay [2]; 17 µM in assay [4] (setting [6]); 10 µM in assay [4] (setting [7]); greater than 10 µM in assay [5]. Moreover, the ED50 in assay [3] is 13 mg/kg.
For the compound `CC(C)c1ccc2nc3ccc(C(=O)NCCCCc4cccnc4)cn3c(=O)c2c1` [Compound B, 2-(1-methylethyl)-N-[4-(3-pyridyl)butyl]-11-oxo-11H-pyrido[2,1-b]quinazoline-8-carboxamide], the IC50 in assay [1] was 0.1 to 1 µM; in assay [2], less than 10 µM; in assay [4] (setting [6]), 13 µM; in assay [4] (setting [7]), 8 µM; in assay [5], less than 10 µM. For the same compound, the ED50 in assay [3] is 100 mg/kg.
Take `CC(C)c1ccc2nc3ccc(C(=O)NCCCCCCc4cccnc4)cn3c(=O)c2c1` [Compound C, 2-(1-Methylethyl)-N-[6-(3-pyridyl)hexyl]-11-oxo-11H-pyrido[2,1-b]quinazoline-8-carboxamide]: the IC50 in assay [1] was 0.1 µM; in assay [2], less than 10 µM; in assay [4] (setting [6]) it was 5.4 µM; in assay [4] (setting [7]) it was 2.4 µM; in assay [5], less than 10 µM. Further, the ED50 in assay [3] was found to be 50 mg/kg.
